Values of other authors in patent publication US9060937B2, “Pharmaceutical compositions” (priority 2006, dated 2015).

Conditions: in water

For `CCCCC1=NC2(CCCC2)C(=O)N1Cc1ccc(-c2ccccc2-c2nnn[nH]2)cc1` [irbesartan, Irbesartan], the solubility is given as less than 0.1 µg/mL.
